{
  "source": "patent EP3807270B1",
  "about": "“NOVEL HETEROARYL HETEROCYCLYL COMPOUNDS FOR THE TREATMENT OF AUTOIMMUNE DISEASE” (F. Hoffmann-La Roche AG, priority 2018, dated 2019)",
  "note": "pIC50: −log10 of the molar value.",
  "data": [
    {"target": "T1, hTLR9 (Homo sapiens, UniProt Q9NR96)", "T1 sequence (Q9NR96 26-1032)": "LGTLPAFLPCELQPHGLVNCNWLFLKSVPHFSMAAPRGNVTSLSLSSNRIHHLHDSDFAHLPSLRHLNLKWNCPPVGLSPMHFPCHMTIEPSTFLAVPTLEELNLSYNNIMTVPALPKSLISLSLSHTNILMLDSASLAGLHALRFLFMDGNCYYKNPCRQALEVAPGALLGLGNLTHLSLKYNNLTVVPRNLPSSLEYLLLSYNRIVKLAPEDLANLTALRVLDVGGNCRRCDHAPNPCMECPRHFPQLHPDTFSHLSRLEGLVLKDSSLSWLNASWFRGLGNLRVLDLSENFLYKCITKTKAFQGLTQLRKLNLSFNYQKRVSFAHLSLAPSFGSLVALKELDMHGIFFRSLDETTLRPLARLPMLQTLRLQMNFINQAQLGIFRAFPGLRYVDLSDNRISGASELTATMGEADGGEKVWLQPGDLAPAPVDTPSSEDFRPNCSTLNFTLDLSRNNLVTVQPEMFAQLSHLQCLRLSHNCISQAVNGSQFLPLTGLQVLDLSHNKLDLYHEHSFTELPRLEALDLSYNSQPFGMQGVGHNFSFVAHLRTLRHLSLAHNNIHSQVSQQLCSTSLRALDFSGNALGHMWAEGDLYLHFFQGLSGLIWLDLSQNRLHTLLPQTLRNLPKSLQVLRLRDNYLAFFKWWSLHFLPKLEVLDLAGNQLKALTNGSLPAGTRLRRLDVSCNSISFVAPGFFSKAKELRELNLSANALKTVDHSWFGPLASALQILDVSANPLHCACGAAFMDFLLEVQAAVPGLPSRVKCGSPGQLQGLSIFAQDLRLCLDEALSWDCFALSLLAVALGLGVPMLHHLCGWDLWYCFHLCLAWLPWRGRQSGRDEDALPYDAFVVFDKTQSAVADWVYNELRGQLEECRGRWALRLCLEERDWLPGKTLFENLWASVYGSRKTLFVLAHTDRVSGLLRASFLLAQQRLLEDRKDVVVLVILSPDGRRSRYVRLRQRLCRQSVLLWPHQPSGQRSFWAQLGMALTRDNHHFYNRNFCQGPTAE", "assay": "HEK293-Blue-hTLR-9 cells assay (SEAP reporter, ODN2006 stimulation)", "type": "cell-based", "design": "host or cells: HEK293 (HEK-Blue)", "settings": "HEK293-Blue-hTLR9 cells, ODN2006, 20 hrs; read-out: HEK/hTLR9 IC50", "description": "A stable HEK293-Blue-hTLR-9 cell line was purchased from InvivoGen (Cat.#: hkb-htlr9, San Diego, California, USA). These cells were originally designed for studying the stimulation of human TLR9 by monitoring the activation of NF-κB. A SEAP (secreted embryonic alkaline phosphatase) reporter gene was placed under the control of the IFN-β minimal promoter fused to five NF-κB and AP-1-binding sites. The SEAP was induced by activating NF-κB and AP-1 via stimulating HEK-Blue hTLR9 cells with TLR9 ligands. Therefore, the reporter expression was declined by TLR9 antagonist under the stimulation of a ligand, such as ODN2006 (Cat.#: tlrl-2006-1, Invivogen, San Diego, California, USA), for incubation of 20 hrs. The cell culture supernatant SEAP reporter activity was determined using QUANTI-Blue™ kit (Cat.#: rep-qb 1, Invivogen, San Diego, California, USA) at a wavelength of 640 nm, a detection medium that turns purple or blue in the presence of alkaline phosphatase.\nHEK293-Blue-hTLR9 cells were incubated at a density of 250,000-450,000 cells/mL in a volume of 170 µL in a 96-well plate in Dulbecco's Modified Eagle's medium (DMEM) containing 4.5 g/L glucose, 50 U/mL penicillin, […], […], 2 mM L-glutamine, 10% (v/v) heat-inactivated fetal bovine serum with addition of 20 µL test compound in a serial dilution in the presence of final DMSO at 1% and 10 µL of 20uM ODN2006 in above DMEM, perform incubation under 37 °C in a CO2 incubator for 20 hrs. Then 20 µL of the supernatant from each well was incubated with 180 µL Quanti-blue substrate solution at 37 °C for 2 hrs and the absorbance was read at 620-655 nm using a spectrophotometer. The signaling pathway that TLR9 activation leads to downstream NF-κB activation has been widely accepted, and therefore similar reporter assay was modified for evaluating TLR9 antagonist.", "values": [
      {"smiles": "C[C@@H]1CN(c2ccc(C#N)c3ncccc23)C[C@H](CN2CCN(c3cc4c(cn3)CNCC4)CC2)O1", "note": "[Example 19, 5-[(2R,6S)-2-methyl-6-[[4-(5,6,7,8-tetrahydro-2,7-naphthyridin-3-yl)piperazin-1-yl]methyl]morpholin-4-yl]quinoline-8-carbonitrile]", "pIC50": 7.20},
      {"smiles": "C[C@@H]1CN(c2ccc(C#N)c3ncccc23)C[C@H](CN2CCN(c3cnc4c(c3)CNCC4)CC2)O1", "note": "[Example 21, 5-[(2R,6S)-2-methyl-6-[[4-(5,6,7,8-tetrahydro-1,6-naphthyridin-3-yl)piperazin-1-yl]methyl]morpholin-4-yl]quinoline-8-carbonitrile]", "pIC50": 7.28},
      {"smiles": "C[C@@H]1CN(c2ccc(C#N)c3nccnc23)C[C@H](CN2CCN(c3cnc4c(c3)CNC4)CC2)O1", "note": "[Example 25, 8-[(2S,6R)-2-[[4-(6,7-dihydro-5H-pyrrolo[3,4-b]pyridin-3-yl)piperazin-1-yl]methyl]-6-methyl-morpholin-4-yl] quinoxaline-5-carbonitrile]", "pIC50": 7.05},
      {"smiles": "C[C@@H]1CN(c2ccc(C#N)n3ncc(F)c23)C[C@H](CN2CCN(c3cnc4c(c3)CNC4)CC2)O1", "note": "[Example 26, 4-[(2S,6R)-2-[[4-(6,7-dihydro-5H-pyrrolo[3,4-b]pyridin-3-yl)piperazin-1-yl]methyl]-6-methyl-morpholin-4-yl]-3-fluoro-pyrazolo[1,5-a]pyridine-7-carbonitrile]", "pIC50": 6.92},
      {"smiles": "C[C@@H]1CN(c2ccc(C#N)c3ncccc23)C[C@H](CN2CCN(c3ncc4c(n3)CCNC4)CC2)O1", "note": "[Example 29, 5-[(2R,6S)-2-methyl-6-[[4-(5,6,7,8-tetrahydropyrido[4,3-d]pyrimidin-2-yl)piperazin-1-yl]methyl]morpholin-4-yl]quinoline-8-carbonitrile]", "pIC50": 6.91},
      {"smiles": "C[C@@H]1CN(c2ccc(C#N)c3ncccc23)C[C@H](CN2CCN(c3ccc4c(n3)CNC4)CC2)O1", "note": "[Example 30, 5-[(2S,6R)-2-[[4-(6,7-dihydro-5H-pyrrolo[3,4-b]pyridin-2-yl)piperazin-1-yl]methyl]-6-methyl-morpholin-4-yl] quinoline-8-carbonitrile]", "pIC50": 7.39},
      {"smiles": "C[C@@H]1CN(c2ccc(C#N)c3ncccc23)C[C@H](CN2CCN(c3nc4c(s3)CNCC4)CC2)O1", "note": "[Example 31, 5-[(2R,6S)-2-methyl-6-[[4-(4,5,6,7-tetrahydrothiazolo[5,4-c]pyridin-2-yl)piperazin-1-yl]methyl]morpholin-4-yl]quinoline-8-carbonitrile]", "pIC50": 6.85},
      {"smiles": "C[C@@H]1CN(c2ccc(C#N)c3ncccc23)C[C@H](CN2CCC(Nc3ncc4c(n3)CNC4)C2)O1", "note": "(stereo partly drawn) [Example 32, 5-[(2S,6R)-2-[[3-(6,7-dihydro-5H-pyrrolo[3,4-d]pyrimidin-2-ylamino)pyrrolidin-1-yl]methyl]-6-methyl-morpholin-4-yl]quinoline-8-carbonitrile]", "pIC50": 7.00},
      {"smiles": "C[C@@H]1CN(c2ccc(C#N)c3ncccc23)C[C@H](CN2CCCN(c3nc4c(s3)CNCC4)CC2)O1", "note": "[Example 33, 5-[(2R,6S)-2-methyl-6-[[4-(4,5,6,7-tetrahydrothiazolo[5,4-c]pyridin-2-yl)-1,4-diazepan-1-yl]methyl]morpholin-4-yl]quinoline-8-carbonitrile]", "pIC50": 7.05},
      {"smiles": "C[C@@H]1CN(c2ccc(C#N)c3ncccc23)C[C@H](CN2CCN(c3ccc4c(n3)CCN(C)C4)CC2)O1", "note": "[Example 34, 5-[(2R,6S)-2-methyl-6-[[4-(6-methyl-7,8-dihydro-5H-1,6-naphthyridin-2-yl)piperazin-1-yl]methyl]morpholin-4-yl]quinoline-8-carbonitrile]", "pIC50": 7.07},
      {"smiles": "C[C@@H]1CN(c2ccc(C#N)c3ncccc23)C[C@H](CN2CC3(CCN3c3ccc4c(n3)CCNC4)C2)O1", "note": "[Example 36, 5-[(2R,6S)-2-methyl-6-[[1-(5,6,7,8-tetrahydro-1,6-naphthyridin-2-yl)-1,6-diazaspiro[3.3]heptan-6-yl]methyl]morpholin-4-yl]quinoline-8-carbonitrile]", "pIC50": 7.35},
      {"smiles": "C[C@@H]1CN(c2ccc(C#N)c3ncccc23)C[C@H](CN2CCC(Nc3ccc4c(c3)CNC4)C2)O1", "note": "(stereo partly drawn) [Example 38, 5-[(2S,6R)-2-[[3-(isoindolin-5-ylamino)pyrrolidin-1-yl]methyl]-6-methyl-morpholin-4-yl]quinoline-8-carbonitrile]", "pIC50": 7.47},
      {"smiles": "C[C@@H]1CN(c2ccc(C#N)c3ncccc23)C[C@H](CN2CCCN(c3ncc4c(n3)CCNC4)CC2)O1", "note": "[Example 39, 5-[(2R,6S)-2-methyl-6-[[4-(5,6,7,8-tetrahydropyrido[4,3-d]pyrimidin-2-yl)-1,4-diazepan-1-yl]methyl]morpholin-4-yl]quinoline-8-carbonitrile]", "pIC50": 7.05},
      {"smiles": "C[C@@H]1CN(c2ccc(C#N)c3ncccc23)C[C@H](CN2CCN(c3cnc4c(n3)CNCC4)CC2)O1", "note": "[Example 40, 5-[(2R,6S)-2-methyl-6-[[4-(5,6,7,8-tetrahydropyrido[3,4-b]pyrazin-3-yl)piperazin-1-yl]methyl]morpholin-4-yl]quinoline-8-carbonitrile]", "pIC50": 6.91},
      {"smiles": "CC1NCc2ncc(N3CCN(C[C@H]4CN(c5ccc(C#N)c6ncccc56)C[C@@H](C)O4)CC3)cc21", "note": "(stereo partly drawn) [Example 41, 5-[(2R,6S)-2-methyl-6-[[4-(5-methyl-6,7-dihydro-5H-pyrrolo[3,4-b]pyridin-3-yl)piperazin-1-yl]methyl]morpholin-4-yl]quinoline-8-carbonitrile]", "pIC50": 7.22},
      {"smiles": "C[C@@H]1CN(c2ccc(C#N)c3ncccc23)C[C@H](CNC2CN(c3cnc4c(c3)CNC4)C2)O1", "note": "[Example 43, 5-[(2S,6R)-2-[[[1-(6,7-dihydro-5H-pyrrolo[3,4-b]pyridin-3-yl)azetidin-3-yl]amino]methyl]-6-methyl-morpholin-4-yl]quinoline-8-carbonitrile]", "pIC50": 6.95},
      {"smiles": "C[C@@H]1CN(c2ccc(C#N)c3ncccc23)C[C@H](CN2CC3(C2)CN(c2ccc4c(c2)CCNC4)CCO3)O1", "note": "[Example 44, 5-[(2R,6S)-2-methyl-6-[[8-(1,2,3,4-tetrahydroisoquinolin-6-yl)-5-oxa-2,8-diazaspiro[3.5]nonan-2-yl]methyl]morpholin-4-yl]quinoline-8-carbonitrile]", "pIC50": 7.07},
      {"smiles": "C[C@@H]1CN(c2ccc(C#N)c3ncccc23)C[C@H](CN2CC3(C2)CN(c2ccc4c(n2)CNCC4)CCO3)O1", "note": "[Example 45, 5-[(2R,6S)-2-methyl-6-[[8-(5,6,7,8-tetrahydro-1,7-naphthyridin-2-yl)-5-oxa-2,8-diazaspiro[3.5]nonan-2-yl]methyl]morpholin-4-yl]quinoline-8-carbonitrile]", "pIC50": 6.95},
      {"smiles": "C[C@@H]1CN(c2ccc(C#N)c3ncccc23)C[C@H](CN2CC3(C2)CN(c2cnc4c(c2)CCNC4)CCO3)O1", "note": "[Example 46, 5-[(2R,6S)-2-methyl-6-[[8-(5,6,7,8-tetrahydro-1,7-naphthyridin-3-yl)-5-oxa-2,8-diazaspiro[3.5]nonan-2-yl]methyl]morpholin-4-yl]quinoline-8-carbonitrile]", "pIC50": 6.94},
      {"smiles": "C[C@@H]1CN(c2ccc(C#N)c3ncccc23)C[C@H](CN2CC3(C2)CN(c2cnc4c(c2)CNCC4)CCO3)O1", "note": "[Example 47, 5-[(2R,6S)-2-methyl-6-[[8-(5,6,7,8-tetrahydro-1,6-naphthyridin-3-yl)-5-oxa-2,8-diazaspiro[3.5]nonan-2-yl]methyl]morpholin-4-yl]quinoline-8-carbonitrile]", "pIC50": 7.14}
    ]}
  ]
}
